# Measurements from patent US20260258084A1, “New Peptides as Selective IL-23 Receptor Antagonists” (Sanofi, priority 2022, published 2026).
# Like-named read-outs stand apart in the source and are kept apart here. Starred links: 1 amine or outer side, 2 acyl side, 3 side chain; linkers in the order of their positions; H or OH if unused. Positions of bridges follow the written chain, without caps; N, C: chain ends. Non-standard residues stand in square brackets, D forms with d. Residues, ends and D or L forms follow the SMILES beside them. *: point of attachment. Yde = (2S)-2-amino-3-[4-[2-(dimethylamino)ethoxy]phenyl]propanoic acid, CN(C)CCOc1ccc(C[C@H](N[*:1])C(=O)[*:2])cc1; Trp(7-Me) = Cc1cccc2c(C[C@H](N)C(=O)O)c[nH]c12; X1 = O=C(CCCCN[*:3])N[C@@H](CS[*:2])C(=O)[*:1]; αMeLys(Me2) = CN(C)CCCC[C@](C)(N)C(=O)O; 2Nal = N[C@@H](Cc1ccc2ccccc2c1)C(=O)O; d2Nal = N[C@H](Cc1ccc2ccccc2c1)C(=O)O; εLys = N[C@@H](CCCCN[*:1])C(=O)[*:2]; 3Pal = N[C@@H](Cc1cccnc1)C(=O)O; NMeN = CN[C@@H](CC(N)=O)C(=O)O; αMeL = CC(C)C[C@](C)(N)C(=O)O; Thp = NC1(C(=O)O)CCOCC1; Me2NCH2CH2 = CN(C)CC*; Aib = CC(C)(N)C(=O)O; Ahx = NCCCCCC(=O)O; Ava = NCCCCC(=O)O; Sar = CNCC(=O)O
# T1: recombinant human IL-23R-Fc chimera (human, UniProt Q5VWK5 24-353)
# T1 construct: used at 0.1 µg/ml in the ELISA; not shown: Fc part of the chimera; detected with goat anti-hu-IgG1-HRP a
# T1 sequence (looked up): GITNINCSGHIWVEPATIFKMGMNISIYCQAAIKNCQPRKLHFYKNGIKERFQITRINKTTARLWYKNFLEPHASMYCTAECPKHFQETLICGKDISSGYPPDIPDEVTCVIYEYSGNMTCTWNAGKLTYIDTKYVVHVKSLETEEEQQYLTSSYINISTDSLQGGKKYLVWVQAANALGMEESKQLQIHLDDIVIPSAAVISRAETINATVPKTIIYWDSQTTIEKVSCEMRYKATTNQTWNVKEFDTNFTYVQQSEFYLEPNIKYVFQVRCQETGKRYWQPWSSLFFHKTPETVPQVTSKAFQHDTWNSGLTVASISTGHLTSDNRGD
# T2: IL-23 receptor on the surface of HEK-Blue IL-23 cells (UniProt Q5VWK5 24-629, limits assumed)
# T2 sequence (looked up): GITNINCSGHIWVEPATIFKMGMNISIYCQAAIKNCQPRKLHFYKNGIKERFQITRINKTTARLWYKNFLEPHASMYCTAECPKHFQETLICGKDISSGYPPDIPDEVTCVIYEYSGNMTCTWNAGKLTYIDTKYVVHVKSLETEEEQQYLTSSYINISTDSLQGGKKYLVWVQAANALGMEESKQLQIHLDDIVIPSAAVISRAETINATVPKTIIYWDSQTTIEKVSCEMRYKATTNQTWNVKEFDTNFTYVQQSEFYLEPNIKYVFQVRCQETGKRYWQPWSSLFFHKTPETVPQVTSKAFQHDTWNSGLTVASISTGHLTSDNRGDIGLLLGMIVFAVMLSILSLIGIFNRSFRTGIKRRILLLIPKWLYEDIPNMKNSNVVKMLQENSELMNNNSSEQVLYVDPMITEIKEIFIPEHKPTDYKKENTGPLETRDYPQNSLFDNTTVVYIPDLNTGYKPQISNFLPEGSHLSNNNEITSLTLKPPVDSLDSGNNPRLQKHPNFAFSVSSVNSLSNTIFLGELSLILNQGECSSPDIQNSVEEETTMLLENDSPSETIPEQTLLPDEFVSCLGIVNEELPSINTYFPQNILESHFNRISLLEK
# B1: Pen peptide compound of SEQ ID NO: 163 (peptide)
# peptide: XXNTWQXXXXENN
# modifications: not fully specified; Apt(§1)-Pen(@2)-N-T-W-Q-Pen(@2)-Yae-Nal-Thp-E(§1)-N-N-NH2
# B2: Compound of SEQ ID NO: 28 (peptide)
# peptide: [Ava]C[εLys](Ac)WQC[Yde][2Nal][αMeL]ENN-NH2
# modifications: lactam N-10; disulfide 2-6; also: Cys2 carboxyl bonded to Lys3 epsilon-NH2 (isopeptide), Lys3 alpha-N acetylated
# B3: Compound of SEQ ID NO: 35 (peptide)
# peptide: [Ava]CNT[Trp(7-Me)]K(Ac)C[Yde][2Nal][Thp]EN[3Pal][Sar]-NH2
# modifications: lactam N-11; disulfide 2-7
# SMILES: CC(=O)NCCCC[C@@H]1NC(=O)[C@H](Cc2c[nH]c3c(C)cccc23)NC(=O)[C@H]([C@@H](C)O)NC(=O)[C@H](CC(N)=O)NC(=O)[C@@H]2CSSC[C@H](NC1=O)C(=O)N[C@@H](Cc1ccc(OCCN(C)C)cc1)C(=O)N[C@@H](Cc1ccc3ccccc3c1)C(=O)NC1(CCOCC1)C(=O)N[C@H](C(=O)N[C@@H](CC(N)=O)C(=O)N[C@@H](Cc1cccnc1)C(=O)N(C)CC(N)=O)CCC(=O)NCCCCC(=O)N2
# What was measured:
# [1] = target: T3, human interleukin-23 receptor (recombinant human IL-23R-Fc chimera) (Homo sapiens, UniProt Q5VWK5); assay: Human ELISA IL23/IL23R (assay for specific human IL23R antagonists); type: binding; conditions: Table 10; read-out: Human ELISA IL23/IL23R IC50
# T3 construct: Fc (IgG Fc fusion)
# Procedure, shortened: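 Competition format: peptide dilutions compete for IL23R-Fc chimera (0.1 μg/ml final, 60 min, room temperature) binding to immobilized human IL23 coated at […] overnight at 4 °C. Read-out is fluorogenic HRP signal from goat anti-hu-IgG1 detecting captured receptor.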
# Pepsin = test system: T4, Pepsin; assay: Protease stability in simulated gastric fluid (Pepsin-SGF, FaSSGF); type: in vitro ADME; conditions: simulated gastric fluid with pepsin (Pepsin-SGF), 60 min, 1 μM peptide, 37° C., read-out: FaSSGF 60 (min), remaining percent of peptide
# T4 construct: purchased Merck Millipore
# Procedure, shortened: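 LCMS/MS peak areas, normalised to the time-0 sample as 100%, give percent remaining. Conditions: 37° C incubation of 1 μM final peptide in simulated gastric fluid with pepsin; ethanol/0.1% HCOOH quench at 0, 60, 120, 240 min.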
# Pancreatin = assay: Protease stability in simulated intestinal fluid (Pancreatin-SIF, FaSSIF); type: in vitro ADME; conditions: 1 μM peptide, 37° C.; for remaining at 1 h, 1 µM: 60 min, read-out: FaSSIF 60 (min), remaining percent of peptide; for remaining at 2 h, 1 µM: 120 min, read-out: FaSSIF 120 (min), remaining percent of peptide; for remaining at 4 h, 1 µM: 240 min, read-out: FaSSIF 240 (min), remaining percent of peptide
# Procedure, shortened: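 LC-MS/MS peak areas at 0, 60, 120 and 240 min, normalised to time 0 as 100%, give percent remaining. Reactions used 1 μM final peptide at 37° C in pancreatin-SIF (1 mg pancreatin in 10 mL SIF concentrate) and were stopped with ethanol containing 0.1% HCOOH.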
# [2] = Chemical stability assessment of peptides (relative purity loss); type: physicochemical; conditions: 24 hours at 37° C.; for Chemical stability (relative purity loss) Buffer pH 1.2: 50 mM HCl pH 1.2 + acetonitrile (1:1); for Chemical stability (relative purity loss) Buffer pH 6.5: 50 mM phosphate buffer pH 6.5 + acetonitrile (1:1); for Chemical stability (relative purity loss) Buffer pH 7.4: 50 mM phosphate buffer pH 7.4 + acetonitrile (1:1)
# Procedure, shortened: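 Peptide solutions at 1 mg/ml (purity-corrected) in 1:1 acetonitrile with 50 mM HCl pH 1.2, or 50 mM phosphate pH 6.5 or pH 7.4, held 24 hours at 2° C. and 37° C. Supernatants analysed by UHPLC-UV; relative purity loss taken as percent drop in peak-area purity from 0 to 24 hours at 37° C.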
# [3] = test system: IL-23 induced STAT3 signaling in HEK-Blue™ IL-23 cells; assay: IL-23 induced STAT3 signaling in HEK-Blue IL-23 cells (SEAP reporter); type: cell-based; conditions: human IL23 0.25 ng/ml, read-out: pSTAT3
# Procedure, shortened: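 Secreted SEAP, read at OD 620-655 nm after 45 min QUANTI-Blue development, reports STAT3 activation. Beforehand, cells were exposed to peptide dilutions for 60 min at 37 °C and then to 0.25 ng/ml final human IL-23 overnight, at 10,000 cells/well.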
# [4] = Solubility testing of peptides at different pH; type: physicochemical; conditions: target concentration 1 mg/ml, 2 hours agitation
# Procedure, shortened: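 Four buffers were used: 50 mM HCl pH 1.2 and 50 mM phosphate at pH 6.5, 7.4 and 9.0, each receiving dried-down compound at a 1 mg/mL target. After 2 h gentle shaking and 0.45 μm filtration, UV peak areas were compared with a DMSO standard curve of known concentration, allowing for extinction coefficients.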
# [5] = target: T1, recombinant human IL-23R-Fc chimera; assay: competition ELISA: IL-23R-Fc binding to coated human IL23
# Protocol: Antagonism of compounds for human interleukin-23 receptor antagonists, was determined by an ELISA assay.
# A 384-well plate was coated with 50 μl/well of human IL23 at a final concentration of […] and incubated overnight at 4° C. The wells were washed 3 times with 80 μl wash buffer and blocked with 80 μl blocking buffer for 60 minutes at room temperature and washed again. 20 μl of serially diluted test peptides was added to each well and subsequently 20 μl of recombinant human IL-23R-Fc chimera at final concentration of 0.1 μg/ml. The plate was incubated for 60 minutes at room temperature. After the wells were washed, bound IL23R-Fc was detected with goat anti-hu-IgG1-HRP antibody. Signals were visualized with QuantaBlu Fluorogenic Peroxidase Substrate.
# [6] = target: T2, IL-23 receptor on the surface of …; assay: cell-based or functional assay
# [7] = 50 mM HCl buffer, 50 mM HCl pH 1.2, read-out: Solubility Buffer pH 1.2
# [8] = 50 mM phosphate buffer pH 6.5, read-out: Solubility Buffer pH 6.5
# [9] = 50 mM phosphate buffer pH 7.4, read-out: Solubility Buffer pH 7.4
Molecule,IC50 [1] [pM],"remaining at 1 h, 1 µM (Pepsin) [%]","remaining at 1 h, 1 µM (Pancreatin) [%]","remaining at 2 h, 1 µM (Pancreatin) [%]","remaining at 4 h, 1 µM (Pancreatin) [%]",Chemical stability (relative purity loss) Buffer pH 1.2 [2] [%],Chemical stability (relative purity loss) Buffer pH 6.5 [2] [%],Chemical stability (relative purity loss) Buffer pH 7.4 [2] [%],IC50 [3] [pM],"solubility at 2 h [4, 7] [µg/mL]","solubility at 2 h [4, 8] [µg/mL]","solubility at 2 h [4, 9] [µg/mL]",IC50 [5] [pM],pSTAT3 (nM) [6] [nM]
CC(=O)N[C@H]1CCCCNC(=O)[C@@H]2CSSC[C@H](NC(=O)[C@H](CCC(N)=O)NC(=O)[C@H](Cc3c[nH]c4ccccc34)NC1=O)C(=O)N[C@@H](Cc1ccc(OCCN(C)C)cc1)C(=O)N[C@@H](Cc1ccc3ccccc3c1)C(=O)NC1(CCOCC1)C(=O)N[C@H](C(=O)N[C@@H](CC(N)=O)C(=O)NCC(N)=O)CCC(=O)NCCCCC(=O)N2 [compound 30] (Ac-KWQCY(Me2NCH2CH2)[2Nal][Thp]ENG-NH2; linker 1-4-8 via X1),540,87,93,92,83,18.7,2.1,3.7,5410,–,–,–,–,–
COc1ccc(C[C@@H]2NC(=O)[C@@H]3CSSC[C@H](NC(=O)CCCCCNC(=O)CC[C@@H](C(=O)N[C@@H](CC(N)=O)C(=O)N[C@@H](CC(N)=O)C(N)=O)NC(=O)C(C)(C)NC(=O)[C@H](Cc4ccc5ccccc5c4)NC2=O)C(=O)N[C@@H](CC(N)=O)C(=O)N[C@@H]([C@@H](C)O)C(=O)N[C@@H](Cc2c[nH]c4ccccc24)C(=O)N[C@@H](CCC(N)=O)C(=O)N3)cc1 [compound 2] ([Ahx]CNTWQCY(Me)[2Nal][Aib]ENN-NH2; disulfide 2-7; lactam N-11),600,1,71,71,47,27.5,0.1,0.8,54000,100,< 50,< 50,–,–
COc1ccc(C[C@@H]2NC(=O)[C@@H]3CSSC[C@H](NC(=O)CCCCCNC(=O)C[C@@H](C(=O)N[C@@H](CC(N)=O)C(=O)N[C@@H](CC(N)=O)C(N)=O)NC(=O)C(C)(C)NC(=O)[C@H](Cc4ccc5ccccc5c4)NC2=O)C(=O)N(C)[C@@H](CC(N)=O)C(=O)N[C@@H]([C@@H](C)O)C(=O)N[C@@H](Cc2c[nH]c4ccccc24)C(=O)N[C@@H](CCC(N)=O)C(=O)N3)cc1 [compound 6] ([Ahx]C[NMeN]TWQCY(Me)[2Nal][Aib]DNN-NH2; disulfide 2-7; lactam N-11),680,1,78,77,51,27.4,–,3.1,72900,40,30,20,–,–
C[C@@H](O)[C@@H]1NC(=O)[C@H](CC(N)=O)NC(=O)[C@@H]2CSSC[C@H](NC(=O)[C@H](CCC(N)=O)NC(=O)[C@H](Cc3c[nH]c4ccccc34)NC1=O)C(=O)N[C@@H](Cc1ccc(OCCN)cc1)C(=O)N[C@H](Cc1ccc3ccccc3c1)C(=O)NC(C)(C)C(=O)N[C@H](C(=O)N[C@@H](CC(N)=O)C(=O)N[C@@H](CC(N)=O)C(N)=O)CCC(=O)NCCCCC(=O)N2 [compound 5],610,82,94,86,64,–,–,–,9660,≥ 1110,≥ 1230,≥ 1230,–,–
CC(=O)NCCCC[C@@H]1NC(=O)[C@H](Cc2c[nH]c3ccccc23)NC(=O)[C@@H](NC(C)=O)CCCCNC(=O)[C@@H]2CSSC[C@H](NC1=O)C(=O)N[C@@H](Cc1ccc(OCCN(C)C)cc1)C(=O)N[C@H](Cc1ccc3ccccc3c1)C(=O)N[C@@](C)(CCCCN(C)C)C(=O)N[C@H](C(=O)N[C@@H](CC(N)=O)C(=O)N[C@@H](Cc1cccnc1)C(=O)N(C)CC(N)=O)CCC(=O)NCCCCC(=O)N2 [compound 59] (Ac-KWK(Ac)CY(Me2NCH2CH2)[d2Nal][αMeLys(Me2)]EN[3Pal][Sar]-NH2; linker 1-4-8 via X1),240,77,98,97,97,–,–,–,70,≥ 1090,≥ 1030,≥ 1090,–,–
B1,–,–,–,–,–,–,–,–,–,–,–,–,163000,–
B2,–,–,–,–,–,–,–,–,–,–,–,–,390,4.11
B3,–,–,–,–,–,–,–,–,–,–,–,–,340,0.34
